Assay results: ChEMBL document CHEMBL4376823, “The discovery of a potent and selective third-generation EGFR kinase inhibitor as a therapy for EGFR L858R/T790M double mutant non-small cell lung cancer” (Eur J Med Chem, 2019)
Active and inactive are the calls of the source.

How the values were obtained:
NCI-H1975 [1] = test: Induction of apoptosis in human NCI-H1975 cells assessed as upregulation of Bad at 10 to 50 nM incubated for 24 hrs by Western blot analysis; assay type: functional, cell-based
[2] = target: T1, Epidermal growth factor receptor (Homo sapiens, UniProt P00533); test: Inhibition of EGFR in human NCI-H292 cells assessed as reduction in AKT phosphorylation at 5 to 100 nM incubated for 4 hrs by Western blot analysis; assay type: cell-based
NCI-H1975 [3] = test: Induction of apoptosis in human NCI-H1975 cells assessed as upregulation of Bax at 10 to 50 nM incubated for 24 hrs by Western blot analysis; assay type: functional, cell-based
NCI-H1975 [4] = test: Antitumor activity against human NCI-H1975 cells xenografted in ig dosed BALB/c mouse assessed as tumor growth inhibition for one week; assay type: functional, organism-based
[5] = tested on: Epidermal growth factor receptor (Homo sapiens), P00533 [L858R]; test: Inhibition of EGFR L858R mutant in human PC9 cells assessed as reduction in AKT phosphorylation at 5 to 100 nM incubated for 4 hrs by Western blot analysis; assay type: cell-based
[6] = tested on: Epidermal growth factor receptor (Homo sapiens), P00533 [L858R,T790M]; test: Inhibition of EGFR T790M/L858R mutant in human NCI-H1975 cells assessed as reduction in EGFR Y1068 phosphorylation incubated for 4 hrs by Western blot analysis; assay type: cell-based
[7] = tested on: Epidermal growth factor receptor (Homo sapiens), P00533 [L858R]; test: Inhibition of EGFR L858R mutant in human PC9 cells assessed as reduction in AKT phosphorylation incubated for 4 hrs by Western blot analysis; assay type: cell-based
[8] = tested on: Epidermal growth factor receptor (Homo sapiens), P00533 [L858R,T790M]; test: Inhibition of EGFR T790M/L858R mutant in human NCI-H1975 cells assessed as reduction in AKT phosphorylation incubated for 4 hrs by Western blot analysis; assay type: cell-based
[9] = tested on: Epidermal growth factor receptor (Homo sapiens), P00533 [L858R,T790M]; test: Inhibition of EGFR T790M/L858R mutant in human NCI-H1975 cells assessed as reduction in EGFR Y1068 phosphorylation at 5 to 100 nM incubated for 4 hrs by Western blot analysis; assay type: cell-based
[10] = target: T1, Epidermal growth factor receptor; test: Inhibition of EGFR in human NCI-H292 cells assessed as reduction in EGFR Y1068 phosphorylation at 5 to 100 nM incubated for 4 hrs by Western blot analysis; assay type: cell-based
[11] = tested on: Epidermal growth factor receptor (Homo sapiens), P00533 [L858R,T790M]; test: Inhibition of EGFR T790M/L858R mutant in human NCI-H1975 cells assessed as reduction in AKT phosphorylation at 5 to 100 nM incubated for 4 hrs by Western blot analysis; assay type: cell-based
[12] = tested on: Epidermal growth factor receptor (Homo sapiens), P00533 [L858R]; test: Inhibition of EGFR L858R mutant in human PC9 cells assessed as reduction in EGFR Y1068 phosphorylation at 5 to 100 nM incubated for 4 hrs by Western blot analysis; assay type: cell-based
[13] = target: T1, Epidermal growth factor receptor; test: Inhibition of EGFR in human NCI-H292 cells assessed as reduction in AKT phosphorylation incubated for 4 hrs by Western blot analysis; assay type: cell-based
NCI-H1975 [14] = test: Induction of apoptosis in human NCI-H1975 cells assessed as downregulation of Bcl-2 at 10 to 50 nM incubated for 24 hrs by Western blot analysis; assay type: functional, cell-based
NCI-H1975 [15] = test: Induction of apoptosis in human NCI-H1975 cells assessed as reduction in mitochondrial membrane potential at 5 to 50 nM incubated for 24 hrs by JC-1 staining based laser scanning confocal microscopy; assay type: functional, cell-based

T1 sequence (P00533 whole entry): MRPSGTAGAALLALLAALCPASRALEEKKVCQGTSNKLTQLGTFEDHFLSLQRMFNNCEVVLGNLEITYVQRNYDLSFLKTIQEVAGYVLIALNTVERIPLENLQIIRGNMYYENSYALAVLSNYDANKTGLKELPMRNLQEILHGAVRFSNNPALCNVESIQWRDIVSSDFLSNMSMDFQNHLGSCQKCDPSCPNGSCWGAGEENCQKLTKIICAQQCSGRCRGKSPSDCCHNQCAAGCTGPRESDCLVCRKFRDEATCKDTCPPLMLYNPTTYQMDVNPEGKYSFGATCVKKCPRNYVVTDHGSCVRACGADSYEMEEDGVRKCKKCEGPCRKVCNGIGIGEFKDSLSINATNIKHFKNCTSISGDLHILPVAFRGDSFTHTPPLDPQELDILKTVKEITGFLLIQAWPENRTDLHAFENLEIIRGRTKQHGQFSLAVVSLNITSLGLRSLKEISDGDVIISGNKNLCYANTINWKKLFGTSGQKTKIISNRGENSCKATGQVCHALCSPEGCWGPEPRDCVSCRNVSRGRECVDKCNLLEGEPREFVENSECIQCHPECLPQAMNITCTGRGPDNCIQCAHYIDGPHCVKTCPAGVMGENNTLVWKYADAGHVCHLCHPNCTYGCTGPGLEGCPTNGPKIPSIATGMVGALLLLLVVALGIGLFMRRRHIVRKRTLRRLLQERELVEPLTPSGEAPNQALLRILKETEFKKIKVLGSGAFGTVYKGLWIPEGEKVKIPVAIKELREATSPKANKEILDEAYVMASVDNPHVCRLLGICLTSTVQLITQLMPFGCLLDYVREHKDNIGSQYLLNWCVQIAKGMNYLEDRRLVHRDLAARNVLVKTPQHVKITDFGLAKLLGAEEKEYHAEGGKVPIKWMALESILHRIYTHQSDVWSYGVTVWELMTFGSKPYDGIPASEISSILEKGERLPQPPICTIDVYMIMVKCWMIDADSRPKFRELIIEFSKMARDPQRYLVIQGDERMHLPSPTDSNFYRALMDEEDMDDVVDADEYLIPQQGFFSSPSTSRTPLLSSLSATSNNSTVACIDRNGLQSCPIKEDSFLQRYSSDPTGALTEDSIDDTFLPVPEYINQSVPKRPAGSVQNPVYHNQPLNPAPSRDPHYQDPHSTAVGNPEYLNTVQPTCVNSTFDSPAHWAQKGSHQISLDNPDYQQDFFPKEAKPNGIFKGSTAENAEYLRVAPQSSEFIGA
Chain of Epidermal growth factor receptor (Homo sapiens), P00533 [L858R] (P00533 whole entry L858R): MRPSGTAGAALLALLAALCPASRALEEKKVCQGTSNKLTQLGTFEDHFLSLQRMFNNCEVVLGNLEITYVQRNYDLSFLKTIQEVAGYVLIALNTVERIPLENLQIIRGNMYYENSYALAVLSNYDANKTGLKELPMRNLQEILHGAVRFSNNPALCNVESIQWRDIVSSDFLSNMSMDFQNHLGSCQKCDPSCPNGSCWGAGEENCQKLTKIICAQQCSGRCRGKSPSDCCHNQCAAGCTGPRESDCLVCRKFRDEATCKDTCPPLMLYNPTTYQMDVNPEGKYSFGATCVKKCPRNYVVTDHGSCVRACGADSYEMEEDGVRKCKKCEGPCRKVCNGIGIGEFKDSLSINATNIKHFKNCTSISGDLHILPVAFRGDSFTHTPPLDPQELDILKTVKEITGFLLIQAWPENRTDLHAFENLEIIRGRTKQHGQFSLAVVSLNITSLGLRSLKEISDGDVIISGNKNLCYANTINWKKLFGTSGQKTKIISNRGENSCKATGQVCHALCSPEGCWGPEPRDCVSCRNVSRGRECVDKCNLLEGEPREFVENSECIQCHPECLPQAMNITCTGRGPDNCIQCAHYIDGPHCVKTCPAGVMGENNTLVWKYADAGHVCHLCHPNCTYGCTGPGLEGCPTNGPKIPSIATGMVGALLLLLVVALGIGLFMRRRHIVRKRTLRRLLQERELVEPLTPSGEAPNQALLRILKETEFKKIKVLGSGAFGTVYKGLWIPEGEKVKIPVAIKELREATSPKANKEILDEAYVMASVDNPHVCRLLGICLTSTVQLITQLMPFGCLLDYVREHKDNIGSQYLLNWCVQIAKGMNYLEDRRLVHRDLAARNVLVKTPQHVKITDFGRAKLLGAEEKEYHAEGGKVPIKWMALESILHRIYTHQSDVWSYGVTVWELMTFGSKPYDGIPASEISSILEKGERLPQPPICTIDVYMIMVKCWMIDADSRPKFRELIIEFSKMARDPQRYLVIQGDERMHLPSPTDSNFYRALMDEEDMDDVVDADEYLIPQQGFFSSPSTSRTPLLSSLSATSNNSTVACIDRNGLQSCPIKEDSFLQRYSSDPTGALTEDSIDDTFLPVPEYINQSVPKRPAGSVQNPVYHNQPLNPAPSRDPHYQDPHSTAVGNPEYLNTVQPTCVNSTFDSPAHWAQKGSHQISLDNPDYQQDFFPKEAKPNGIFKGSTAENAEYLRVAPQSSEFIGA
Chain of Epidermal growth factor receptor (Homo sapiens), P00533 [L858R,T790M] (P00533 whole entry T790M/L858R, looked up): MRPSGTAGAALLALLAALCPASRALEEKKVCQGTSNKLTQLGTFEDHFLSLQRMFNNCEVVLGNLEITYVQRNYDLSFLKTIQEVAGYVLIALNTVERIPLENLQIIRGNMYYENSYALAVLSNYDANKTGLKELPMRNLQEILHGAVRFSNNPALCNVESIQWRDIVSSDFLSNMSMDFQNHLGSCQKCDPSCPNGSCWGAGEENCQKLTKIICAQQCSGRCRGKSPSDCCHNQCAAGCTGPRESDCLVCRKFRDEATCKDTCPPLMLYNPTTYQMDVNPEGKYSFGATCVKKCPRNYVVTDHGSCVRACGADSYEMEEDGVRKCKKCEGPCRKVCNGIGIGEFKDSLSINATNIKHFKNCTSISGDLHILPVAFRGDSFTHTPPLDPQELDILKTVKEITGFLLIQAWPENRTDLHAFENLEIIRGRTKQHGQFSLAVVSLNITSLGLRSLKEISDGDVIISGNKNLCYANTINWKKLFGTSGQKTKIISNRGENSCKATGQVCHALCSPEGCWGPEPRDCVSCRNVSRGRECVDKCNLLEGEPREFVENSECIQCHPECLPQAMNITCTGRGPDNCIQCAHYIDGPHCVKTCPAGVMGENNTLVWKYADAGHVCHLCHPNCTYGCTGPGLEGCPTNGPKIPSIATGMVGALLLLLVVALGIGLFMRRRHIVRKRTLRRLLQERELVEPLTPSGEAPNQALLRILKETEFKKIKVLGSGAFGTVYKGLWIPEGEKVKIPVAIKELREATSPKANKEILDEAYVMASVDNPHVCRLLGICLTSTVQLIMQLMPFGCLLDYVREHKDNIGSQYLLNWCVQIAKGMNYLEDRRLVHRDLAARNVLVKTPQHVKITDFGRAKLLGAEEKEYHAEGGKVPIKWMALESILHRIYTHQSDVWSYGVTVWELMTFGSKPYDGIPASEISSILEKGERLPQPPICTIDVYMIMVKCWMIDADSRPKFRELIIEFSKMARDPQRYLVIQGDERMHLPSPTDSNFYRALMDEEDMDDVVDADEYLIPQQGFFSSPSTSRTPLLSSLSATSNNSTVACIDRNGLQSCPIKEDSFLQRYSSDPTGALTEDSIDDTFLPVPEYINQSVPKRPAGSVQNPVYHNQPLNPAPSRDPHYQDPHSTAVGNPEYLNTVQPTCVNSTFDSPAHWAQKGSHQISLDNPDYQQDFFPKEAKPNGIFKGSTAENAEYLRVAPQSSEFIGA

C=CC(=O)Nc1cc(Nc2nccc(-c3cn(C)c4ccccc34)n2)c(OC)cc1[S+]([O-])CCN(C)C (single isomer, unassigned; (-))
active: Activity (NCI-H1975 [1]) | inhibition [2] | Activity (NCI-H1975 [3]) | TGI (NCI-H1975 [4]) Dose-dependent effect | inhibition [5] | inhibition [6] Dose-dependent effect | inhibition [7] Dose-dependent effect | inhibition [8] Dose-dependent effect | inhibition [9] | inhibition [10] | inhibition [11] | inhibition [12] | inhibition [13] Dose-dependent effect | Activity (NCI-H1975 [14]) | Activity (NCI-H1975 [15]) Dose-dependent effect
